The record followed here is patent US8163728B2, “Pyrazoles” (Hoffmann-La Roche Inc., priority 2009, dated 2012).

The test addresses T1, GABA A α5 (Homo sapiens, UniProt P18507+P31644).
T1 construct: expressed in transfected cells; host or cells: HEK293 cells, transiently transfected; membranes prepared from cell pellets
Put plainly: [3H]flumazenil competition binding, human GABA A α5β3γ2 receptors in HEK293 cell membranes. To be noted: human receptor α5β3γ2 transiently transfected in HEK293; 0.5 nM [3H]flumazenil; 1 hour at 4° C.; means of two determinations; read-out: hKi GABA A α5. On the procedure:
The affinity of compounds at GABA A receptor subtypes was measured by competition for [3H]flumazenil (85 Ci/mmol; Roche) binding to HEK293 cells expressing rat (stably transfected) or human (transiently transfected) receptors of composition α1β3γ2, α2β3γ2, α3β3γ2 and α5β3γ2.
Cell pellets were suspended in Krebs-tris buffer (4.8 mM KCl, 1.2 mM CaCl2, 1.2 mM MgCl2, 120 mM NaCl, 15 mM Tris; pH 7.5; binding assay buffer), homogenized by polytron for ca. 20 sec on ice and centrifuged for 60 min at 4° C. (50000 g; Sorvall, rotor: SM24=20000 rpm). The cell pellets were re-suspended in Krebs-tris buffer and homogenized by polytron for ca. 15 sec on ice. Protein was measured (Bradford method, Bio-Rad) and aliquots of 1 mL were prepared and stored at −80° C.
Assays were incubated to equilibrium for 1 hour at 4° C. and harvested onto GF/C uni-filters (Packard) by filtration using a Packard harvester and washing with ice-cold wash buffer (50 mM Tris; pH 7.5). After drying, filter-retained radioactivity was detected by liquid scintillation counting. Ki values were calculated using Excel-Fit (Microsoft) and are the means of two determinations.

Turning to `Cc1onc(-c2ccc(F)cc2)c1/C=C/c1cc(C(=O)NC(C)CO)n(C)n1` (centres unmarked) [Example 130, 5-{(E)-2-[3-(4-Fluoro-phenyl)-5-methyl-isoxazol-4-yl]vinyl}-2-methyl-2H-pyrazole-3-carboxylic acid (2-hydroxy-1-methyl-ethyl)-amide], the Ki was determined as 0.9 nM.
As for `Cc1onc(-c2ccc(F)cc2)c1COc1cc(C(=O)NCC(O)C(F)(F)F)n(C)n1` (single isomer, unassigned; (-)) [Example 68, (−)-5-[3-(4-Fluoro-phenyl)-5-methyl-isoxazol-4-ylmethoxy]-2-methyl-2H-pyrazole-3-carboxylic acid ((R or S)-3,3,3-trifluoro-2-hydroxy-propyl)-amide or enantiomer], the figure is 5.3 nM.
Regarding `Cc1onc(-c2ccc(F)cc2)c1/C=C/c1cc(C(=O)NC2CCOCC2)n(C)n1` [Example 125, 5-{(E)-2-[3-(4-Fluoro-phenyl)-5-methyl-isoxazol-4-yl]vinyl}-2-methyl-2H-pyrazole-3-carboxylic acid (tetrahydro-pyran-4-yl)-amide], the Ki turned out to be 0.4 nM.
In the case of `Cc1onc(-c2ccc(F)cc2)c1CNc1cc(C(=O)NC2CCOCC2)n(C)n1` [Example 147, 5-{[3-(4-Fluoro-phenyl)-5-methyl-isoxazol-4-ylmethyl]-amino}-2-methyl-2H-pyrazole-3-carboxylic acid (tetrahydro-pyran-4-yl)-amide], the Ki was found to be 4.7 nM.
For `Cc1onc(-c2ccc(F)cc2)c1COc1cc(C(=O)NC(C)C)n(C)n1` [Example 52, 5-[3-(4-Fluoro-phenyl)-5-methyl-isoxazol-4-ylmethoxy]-2-methyl-2H-pyrazole-3-carboxylic acid isopropylamide], the Ki came to 7.4 nM.
As to “5-{(E)-2-[3-(4-Fluoro-phenyl)-5-methyl-isoxazol-4-yl]vinyl}-2H-pyrazole-3-carboxylic acid (2-hydroxy-1-methyl-ethyl)-amide [Example 136]”, the Ki stood at 1 nM.
Consider `Cc1onc(-c2ccccn2)c1CNc1cc(C(=O)NN2CCOCC2)n(C)n1` [Example 161, 1-Methyl-3-((5-methyl-3-(pyridin-2-yl)isoxazol-4-yl)methylamino)-N-morpholino-1H-pyrazole-5-carboxamide], for which the Ki was 19.4 nM.
As for `Cc1onc(-c2ccccc2)c1COc1cc(C(=O)NCCO)[nH]n1` [Example 6, 5-(5-Methyl-3-phenyl-isoxazol-4-ylmethoxy)-2H-pyrazole-3-carboxylic acid (2-hydroxy-ethyl)-amide], the figure is 17.5 nM; as for `Cn1nc(OCc2c(-c3ccc(Cl)cc3)noc2CO)cc1C(=O)NC1(C)COC1` [Example 108, 5-[3-(4-Chloro-phenyl)-5-hydroxymethyl-isoxazol-4-ylmethoxy]-2-methyl-2H-pyrazole-3-carboxylic acid (3-methyl-oxetan-3-yl)-amide], 3.1 nM; as for `Cc1onc(-c2ccc(F)cc2)c1/C=C/c1cc(C(=O)N2CCS(=O)(=O)CC2)[nH]n1` [Example 131, (1,1-Dioxo-1,6-thiomorpholin-4-yl)-(5-{(E)-2-[3-(4-fluoro-phenyl)-5-methyl-isoxazol-4-yl]-vinyl}-2H-pyrazol-3-yl)-methanone], 36.5 nM.
On to `CCCCc1noc(C)c1COc1cc(C(=O)NC(C)CO)n(C)n1` (racemic) [Example 87, Rac-5-(3-Butyl-5-methyl-isoxazol-4-ylmethoxy)-2-methyl-2H-pyrazole-3-carboxylic acid (2-hydroxy-1-methyl-ethyl)-amide], for which the Ki worked out at 44.7 nM.
Turning to `CCC(CO)NC(=O)c1cc(OCc2c(-c3ccc(F)cc3)noc2C)nn1C` (single isomer, unassigned; (-)) [Example 69, (−)-5-[3-(4-Fluoro-phenyl)-5-methyl-isoxazol-4-ylmethoxy]-2-methyl-2H-pyrazole-3-carboxylic acid ((R or S)-1-hydroxymethyl-propyl)-amide], the Ki stood at 3.5 nM.
As for `Cc1onc(-c2ccc(F)cc2)c1COc1cc(C(=O)NN2CCCCC2)n(C)n1` [Example 49, 5-[3-(4-Fluoro-phenyl)-5-methyl-isoxazol-4-ylmethoxy]-2-methyl-2H-pyrazole-3-carboxylic acid piperidin-1-ylamide], the figure is 19.3 nM; as for `Cc1onc(-c2ccccc2)c1/C=C/c1cc(C(=O)NC(C)C)[nH]n1` [Example 118, 5-[(E)-2-(5-Methyl-3-phenyl-isoxazol-4-yl)-vinyl]-2H-pyrazole-3-carboxylic acid iso-propylamide], 5.1 nM; as for `CCCCc1noc(C)c1COc1cc(C(=O)NCCO)[nH]n1` [Example 33, 5-(3-Butyl-5-methyl-isoxazol-4-ylmethoxy)-2H-pyrazole-3-carboxylic acid (2-hydroxyethyl)-amide], 20.2 nM.
As for `Cc1onc(-c2ccccn2)c1COc1cc(C(=O)NC(C)C)nn1C` [Example 115, 1-Methyl-5-(5-methyl-3-pyridin-2-yl-isoxazol-4-ylmethoxy)-1H-pyrazole-3-carboxylic acid isopropylamide], the figure is 20.5 nM.
Take `CCCCc1noc(C)c1COc1cc(C(=O)NN2CCCC2)[nH]n1` [Example 40, 5-(3-Butyl-5-methyl-isoxazol-4-ylmethoxy)-2H-pyrazole-3-carboxylic acid pyrrolidin-1-ylamide]: the Ki is 21.5 nM.
In the case of `CCCCc1noc(C)c1COc1cc(C(=O)N[C@@H](C)CO)[nH]n1` [Example 27, 5-(3-Butyl-5-methyl-isoxazol-4-ylmethoxy)-2H-pyrazole-3-carboxylic acid ((S)-2-hydroxy-1-methyl-ethyl)-amide], the Ki was 7.8 nM.
As for `Cc1onc(-c2ccc(F)cc2)c1COc1cc(C(=O)NN2CCOCC2)n(C)n1` [Example 50, 5-[3-(4-Fluoro-phenyl)-5-methyl-isoxazol-4-ylmethoxy]-2-methyl-2H-pyrazole-3-carboxylic acid morpholin-4-ylamide], the Ki was 3.5 nM.
As for `COCCNC(=O)c1cc(OCc2c(-c3ccc(F)cc3)noc2C)nn1C` [Example 60, 5-[3-(4-Fluoro-phenyl)-5-methyl-isoxazol-4-ylmethoxy]-2-methyl-2H-pyrazole-3-carboxylic acid (2-methoxy-ethyl)-amide], the Ki was found to be 13.2 nM.
Take `CCCCc1noc(C)c1COc1cc(C(=O)NC2CCOC2)[nH]n1` (single isomer, unassigned; (-)) [Example 34, (−)-(S or R)-3-((3-Butyl-5-methylisoxazol-4-yl)methoxy)-N-(tetrahydrofuran-3-yl)-1H-pyrazole-5-carboxamide]: the Ki was 5.7 nM.
As to `Cn1nc(OCc2c(-c3ccc(Cl)cc3)noc2CO)cc1C(=O)N1CC2(COC2)C1` [Example 109, {5-[3-(4-Chloro-phenyl)-5-hydroxymethyl-isoxazol-4-ylmethoxy]-2-methyl-2H-pyrazol-3-yl}-(2-oxa-6-aza-spiro[3.3]hept-6-yl)-methanone], the Ki worked out at 9 nM.
As for `Cc1onc(-c2ccc(F)cc2)c1COc1cc(C(=O)N[C@@H](C)CO)n(C)n1` (single isomer, unassigned) [Example 75, (+)-5-[3-(4-Fluoro-phenyl)-5-methyl-isoxazol-4-ylmethoxy]-2-methyl-2H-pyrazole-3-carboxylic acid ((R)-2-hydroxy-1-methyl-ethyl)-amide or 5-[3-(4-fluoro-phenyl)-5-methyl-isoxazol-4-ylmethoxy]-2-methyl-2H-pyrazole-3-carboxylic acid ((S)-2-hydroxy-1-methyl-ethyl)-amide or enantiomer], the figure is 5.7 nM.
